Molecular target: T1, α4β7 integrin (Homo sapiens, UniProt P13612+P26010)
T1 construct: monitoring the capture of α4β7 integrin expressing cells on a recombinant MadCAM-1 extracellular domain-coated plate; endogenous in cells; host or cells: RPMI8866 cells
T1 sequence (P13612 34-1032): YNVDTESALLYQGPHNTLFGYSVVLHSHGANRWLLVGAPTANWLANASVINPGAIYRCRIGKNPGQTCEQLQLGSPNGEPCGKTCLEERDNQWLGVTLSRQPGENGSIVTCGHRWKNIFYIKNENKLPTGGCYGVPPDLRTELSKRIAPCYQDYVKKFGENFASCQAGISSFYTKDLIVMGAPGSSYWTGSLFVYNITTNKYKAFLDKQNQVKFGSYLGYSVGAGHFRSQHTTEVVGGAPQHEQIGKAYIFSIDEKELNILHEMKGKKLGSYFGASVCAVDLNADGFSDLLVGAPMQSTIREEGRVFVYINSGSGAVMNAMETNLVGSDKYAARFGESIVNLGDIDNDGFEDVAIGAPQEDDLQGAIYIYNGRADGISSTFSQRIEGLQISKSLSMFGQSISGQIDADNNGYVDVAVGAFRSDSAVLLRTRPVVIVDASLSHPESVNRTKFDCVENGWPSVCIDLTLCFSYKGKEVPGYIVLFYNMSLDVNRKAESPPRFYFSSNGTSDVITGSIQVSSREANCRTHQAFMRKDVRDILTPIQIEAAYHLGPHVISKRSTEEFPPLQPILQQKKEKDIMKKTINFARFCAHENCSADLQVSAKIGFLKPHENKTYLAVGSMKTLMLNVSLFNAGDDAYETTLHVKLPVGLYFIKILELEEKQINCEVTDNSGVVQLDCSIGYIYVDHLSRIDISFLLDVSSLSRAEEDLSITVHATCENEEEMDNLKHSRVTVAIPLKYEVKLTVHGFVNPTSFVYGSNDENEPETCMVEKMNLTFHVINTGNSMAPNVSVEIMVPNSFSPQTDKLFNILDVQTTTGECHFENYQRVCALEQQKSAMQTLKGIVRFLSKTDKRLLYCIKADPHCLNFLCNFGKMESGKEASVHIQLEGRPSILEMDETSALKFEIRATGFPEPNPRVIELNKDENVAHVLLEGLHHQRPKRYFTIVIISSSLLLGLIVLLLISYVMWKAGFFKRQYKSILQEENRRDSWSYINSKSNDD
T1 sequence (P26010 20-798): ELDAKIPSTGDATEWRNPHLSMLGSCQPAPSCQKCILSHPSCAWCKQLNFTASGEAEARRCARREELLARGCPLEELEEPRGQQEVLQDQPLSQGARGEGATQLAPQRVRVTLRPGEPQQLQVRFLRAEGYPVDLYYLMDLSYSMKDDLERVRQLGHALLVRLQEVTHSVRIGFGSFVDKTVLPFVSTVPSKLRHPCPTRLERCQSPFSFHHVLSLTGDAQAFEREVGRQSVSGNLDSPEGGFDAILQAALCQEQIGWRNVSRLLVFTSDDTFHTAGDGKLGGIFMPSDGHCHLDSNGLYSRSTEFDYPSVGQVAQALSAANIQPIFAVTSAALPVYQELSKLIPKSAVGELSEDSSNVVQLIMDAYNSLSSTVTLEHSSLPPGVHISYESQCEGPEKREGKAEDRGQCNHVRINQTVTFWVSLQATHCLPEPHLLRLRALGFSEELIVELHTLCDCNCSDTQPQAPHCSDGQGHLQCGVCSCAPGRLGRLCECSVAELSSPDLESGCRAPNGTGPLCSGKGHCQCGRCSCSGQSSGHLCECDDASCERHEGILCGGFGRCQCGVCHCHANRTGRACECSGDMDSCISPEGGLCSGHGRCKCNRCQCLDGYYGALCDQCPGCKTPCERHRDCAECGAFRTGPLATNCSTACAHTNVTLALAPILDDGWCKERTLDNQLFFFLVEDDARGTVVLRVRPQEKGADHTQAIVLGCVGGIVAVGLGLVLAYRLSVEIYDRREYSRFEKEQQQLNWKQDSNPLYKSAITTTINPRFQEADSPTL
Test: α4β7 Integrin Cell Capture Assay
Format: cell-based
Conditions: capture of α4β7 integrin expressing RPMI8866 cells on recombinant MadCAM-1 extracellular domain-coated plate; DMEM+0.5% FBS+0.5 mM MnCl2; read-out: EC50 α4β7
Method: α4β7 Integrin Cell Capture Assay
The potency of inhibitors in preventing α4β7 integrin interaction with MadCAM-1 was measured by monitoring the capture of α4β7 integrin expressing cells on a recombinant MadCAM-1 extracellular domain-coated plate.
384-Well plates (Corning 3702) were coated with MadCAM-1 extracellular domain by dispensing 20 μL of MAdCAM-1 at 1.0 μg/mL per well and incubating overnight at 4° C. The plates were then washed with PBS and blocked with 3% BSA for 2 hours before being washed again.
RPMI8866 cells were spun down and re-suspended in assay medium (DMEM+0.5% FBS+0.5 mM MnCl2) at a density of 0.5×10^6 cells/mL. The cells were then dispensed (60 μL/well) to a 384-well plate (Greiner 781280) that was previously spotted with 60 nL of test compound per well. The plates were incubated at 37° C. for 1 hour. 50 μL of cells were transferred to the blocked, MadCAM-1-coated plates and incubated for 30 minutes at 37° C. 10 μL of 12% glutaraldehyde containing Hoechst 33342 (0.06 mg/mL) was added to the cells (2% glutaraldehyde and 0.01 mg/mL final concentrations). The plates were incubated for 90 minutes at room temperature. The plates were then washed 3 times with 70 μL of PBS per well and imaged on a Cellomics ArrayScan instrument. The cells that were bound to the plate were counted and plotted against the compound concentration to determine the EC50 of the test compounds.

EC50	SMILES
686 nM	O=C(N[C@@H](Cc1ccc(-c2ccc(F)cc2Cl)c2c(-c3ccc(F)cc3Cl)ccnc12)C(=O)O)c1c(F)cccc1F [Example 91, (S)-3-(4,5-bis(2-chloro-4-fluorophenyl)quinolin-8-yl)-2-(2,6-difluorobenzamido)propanoic acid]
4280 nM	O=C(N[C@@H](Cc1ccc(-c2ccc(F)cc2Cl)c2c(Cl)ccnc12)C(=O)O)c1c(F)cccc1F [Example 90, (S)-3-(4-chloro-5-(2-chloro-4-fluorophenyl)quinolin-8-yl)-2-(2,6-difluorobenzamido)propanoic acid]
290 nM	Cc1nn(C)nc1-c1ccc(C[C@H](NC(=O)c2c(Cl)cccc2Cl)C(=O)O)c2ncccc12 [Example 26, (S)-2-(2,6-dichlorobenzamido)-3-(5-(2,5-dimethyl-2H-1,2,3-triazol-4-yl)quinolin-8-yl)propanoic acid]
50.4 nM	COc1cc(F)c(F)cc1-c1ccc(C[C@H](NC(=O)c2c(Cl)cccc2Cl)C(=O)O)c2nccc(C)c12 (single isomer, unassigned) [Example 99]
34.9 nM	CCOCc1cc(OC)c(-c2ccc(C[C@@H](NC(=O)c3c(F)cc(NS(=O)(=O)c4ccc(-c5ccnc(F)c5)cc4)cc3F)C(=O)O)c3c2cnn3C)c(OC)c1 (single isomer, unassigned) [Example 145]
23.2 nM	Cc1cc(-c2ccc(C[C@H](NC(=O)c3c(Cl)cccc3Cl)C(=O)O)c3ncccc23)c(=O)n(C)c1 [Example 31, (S)-2-(2,6-Dichlorobenzamido)-3-(5-(1,5-dimethyl-2-oxo-1,2-dihydropyridin-3-yl)quinolin-8-yl)propanoic acid]
538 nM	O=C(N[C@@H](Cc1ccc(-c2c(Cl)cccc2C(F)(F)F)c2cccnc12)C(=O)O)c1c(Cl)cccc1Cl [Example 44, (2S)-3-(5-(2-chloro-6-(trifluoromethyl)phenyl)quinolin-8-yl)-2-(2,6-dichlorobenzamido)propanoic acid]
702 nM	O=C(N[C@@H](Cc1ccc(-c2c(Cl)cc(F)cc2Cl)c2cccnc12)C(=O)O)c1c(F)cc(N2CCOCC2C(F)(F)F)cc1F (single isomer, unassigned) [Example 5]
1.1 nM	Cc1ccnc(-c2ccc(C[C@H](NC(=O)c3c(F)cc(N4CCOC[C@@H]4C(F)(F)F)cc3F)C(=O)O)c3ccccc23)c1C(F)(F)F [Example 122]
142 nM	O=C(N[C@@H](Cc1ccc(-c2c(Cl)cc(F)cc2Cl)c2c1C=CCO2)C(=O)O)c1c(Cl)cccc1Cl [Example 169, (S)-3-(8-(2,6-dichloro-4-fluorophenyl)-2H-chromen-5-yl)-2-(2,6-dichlorobenzamido)propanoic acid]
0.22 nM	Cc1nc(-c2ccc(C[C@H](NC(=O)c3c(F)cc(N4CCOC[C@@H]4C(F)(F)F)cc3F)C(=O)O)c3ccccc23)c(=O)n(C)c1C [Example 177]
23 nM	Cc1c(-c2ccc(C[C@H](NC(=O)c3c(Cl)cccc3Cl)C(=O)O)c3ncccc23)c(=O)n(C)c2ccc(Cl)cc12 (single isomer, unassigned) [Example 75]
43.8 nM	COc1cc(F)c(Cl)cc1-c1ccc(C[C@H](NC(=O)c2c(Cl)cccc2Cl)C(=O)O)c2ncccc12 [Example 52, (S)-3-(5-(5-chloro-4-fluoro-2-methoxyphenyl)quinolin-8-yl)-2-(2,6-dichlorobenzamido)propanoic acid]
45.7 nM	COc1cc(F)c(F)cc1-c1ccc(C[C@H](NC(=O)c2c(F)cccc2F)C(=O)O)c2ncccc12 [Example 79, (S)-3-(5-(4,5-difluoro-2-methoxyphenyl)quinolin-8-yl)-2-(2,6-difluorobenzamido) propanoic acid]
416 nM	Cc1c(-c2ccc(C[C@H](NC(=O)c3c(Cl)cccc3Cl)C(=O)O)c3ncccc23)c(C(F)(F)F)nn1C [Example 18, (S)-2-(2,6-dichlorobenzamido)-3-(5-(1,5-dimethyl-3-(trifluoromethyl)-1H-pyrazol-4-yl)quinolin-8-yl)propanoic acid]
836 nM	CCOCc1cc(OC)c(-c2cnc(C[C@H](NC(=O)c3c(F)cccc3F)C(=O)O)c3cccnc23)c(OC)c1 [Example 167, (S)-2-(2,6-difluorobenzamido)-3-(8-(4-(ethoxymethyl)-2,6-dimethoxyphenyl)-1,6-naphthyridin-5-yl)propanoic acid]
3.9 nM	Cn1c(=O)c(-c2ccc(C[C@H](NC(=O)c3c(Cl)cccc3Cl)C(=O)O)c3ccccc23)c(C(F)(F)F)c2ccccc21 [Example 121, (S)-2-(2,6-dichlorobenzamido)-3-(4-(1-methyl-2-oxo-4-(trifluoromethyl)-1,2-dihydroquinolin-3-yl)naphthalen-1-yl)propanoic acid]
0.5 nM	CC[C@@H](Nc1cc(F)c(C(=O)N[C@@H](Cc2ccc(-c3c(C)cc(C)n(C)c3=O)c3ccccc23)C(=O)O)c(F)c1)C(F)(F)F (single isomer, unassigned) [Example 133]
161 nM	COc1c(-c2ccc(C[C@H](NC(=O)c3c(Cl)cccc3Cl)C(=O)O)c3ncccc23)ccc(F)c1F [Example 43, (S)-2-(2,6-dichlorobenzamido)-3-(5-(3,4-difluoro-2-methoxyphenyl)quinolin-8-yl)propanoic acid]
135 nM	O=C(N[C@@H](Cc1ccc(-c2c(Cl)cc(F)cc2Cl)c2nccnc12)C(=O)O)c1c(F)cccc1F [Example 156, (S)-3-(8-(2,6-dichloro-4-fluorophenyl)quinoxalin-5-yl)-2-(2,6-difluorobenzamido)propanoic acid]
2.9 nM	Cc1c(-c2ccc(C[C@H](NC(=O)c3c(F)cc(N4CCOC[C@@H]4C(F)(F)F)cc3F)C(=O)O)c3ncccc23)c(=O)n(C)c2ccc(F)cc12 (single isomer, unassigned) [Example 87]
0.5 nM	CC[C@@H](Nc1cc(F)c(C(=O)N[C@@H](Cc2ccc(-c3cc4cnccc4n(C)c3=O)c3ccccc23)C(=O)O)c(F)c1)C(F)(F)F [Example 142]
2.5 nM	Cc1c(-c2ccc(C[C@H](NC(=O)c3c(Cl)cccc3Cl)C(=O)O)c3ncccc23)c(=O)n(C)c2ccc(Cl)cc12 [Example 67, (S)-3-(6-chloro-1,4-dimethyl-2-oxo-1,2-dihydro-[3,5′-biquinolin]-8′-yl)-2-(2,6-dichlorobenzamido)propanoic acid]
